Like-named read-outs stand apart in the source and are kept apart here.
What was measured:
[1] = target: DNMT1 (Homo sapiens, UniProt P26358); experiment: DNMT1 activity assay (Poly(dI-dC) substrate, ^3H-SAM); assay type: biochemical; conditions: read-out: IC50, DNMT-1 activity
Method: (§2) For the DNMT1 activity assay, the substrate solution, 0.001 mg/ml Poly(dI-dC):Poly(dI-dC) in 50 mM Tris-HCl, pH 7.5, 50 mM NaCl, 5 mM EDTA, 5 mM DTT, 1 mM PMSF, 5% glycerol, 0.01% Brij35, 1% DMSO was used. For the DNMT3a/3b activity assay, 0.0075 mg/ml Lambda DNA in 50 mM Tris-HCl, pH 7.5, 50 mM NaCl, 5 mM EDTA, 5 mM DTT, 1 mM PMSF, 5% glycerol, 1% DMSO, was used. The indicated DNMT1, DNMT3a, or DNMT3b was added to the appropriate substrate solution and gently mixed. […] The mixtures were first incubated for 15 min, then ^3H-SAM was added to the reaction mixture to initiate the reaction, and the mixture was incubated for 60 min at 30° C. Following incubation, the reaction mixture was finally transferred to filter-paper for detection of radioactivity counts.

[2] = target: DNMT3b (Homo sapiens, UniProt Q9UBC3); experiment: DNMT3b activity assay (Lambda DNA substrate, ^3H-SAM); assay type: biochemical; conditions: read-out: IC50, DNMT3b activity
Method: as §2

[3] = test system: CpG sites in promoter regions of LINE-1 element, Huh-7 cells; experiment: LINE-1 global methylation assay; assay type: cell-based, human; conditions: Huh-7 cells in HG media, 25HC3S for 4 hours
Method: Each sample, 2 μg, was sent to […], Inc. (Hopkinton, Mass.) for analysis of global methylation bisulfite sequencing. The same samples, 6 μg, were sent to Novogene Co., Ltd (Tianjin, China) for analysis of whole genome bisulfite sequencing (WGBS). Total RNA was isolated using the Promega SV total RNA isolation system (Madison, Wis.) with DNase treatment. […] Real-time RT-PCR was performed using SYBR Green as the indicator on ABI 7500 Fast Real-Time PCR System (Applied Biosystems, Foster City, Calif.). Amplifications of β-actin or GAPDH were used as internal controls. Relative messenger RNA (mRNA) expression was quantified with the comparative cycle threshold (Ct) method using the primer set shown in Table 1.1 and was expressed as 2^-ΔΔCt. […] PCR reaction and product purification were performed as per the manufacturer's protocol (GE Healthcare Life Sciences). The PCR products, 10 μl, were sequenced by Pyrosequencing on the PSQ96 HS System following the manufacturer's instructions (Pyrosequencing, Qiagen). The methylation status of each CpG site was determined individually as an artificial C/T SNP using QCpG software (Pyrosequencing, Qiagen). The methylation level at each CpG site was calculated as the percentage of the methylated alleles divided by the sum of all methylated and unmethylated alleles. The mean methylation level was calculated using methylation levels of all measured CpG sites within the targeted region of each gene. Each experiment included non-CpG cytosines as internal controls to detect incomplete bisulfite conversion of the input DNA. In addition, a series of unmethylated and methylated DNA were included as controls in each PCR assay. Furthermore, PCR bias testing was performed by mixing unmethylated control DNA with in vitro methylated DNA at different ratios (0%, 5%, 10%, 25%, 50%, 75%, and 100%), followed by bisulfite modification, PCR, and Pyro-sequencing analysis.

[4] = Plasma pharmacokinetics, single intravenous dose; assay type: in vivo, Sprague Dawley rats; conditions: single intravenous (bolus) dose 10 mg/kg
Method: (§1) Nine male Sprague Dawley rats (Group 1) were designated for the pharmacokinetic phase, 3 male Sprague Dawley rats (Group 2) for the excretion mass balance phase, and 7 male Sprague Dawley rats (Group 3) and 9 male Long Evans rats (Group 4) for the tissue distribution phase. All animals received a single intravenous dose of [^14C]-25HC3S at 10 mg/kg and a target radioactivity of 225 μCi/kg. Blood samples were collected from all Group 1 animals at approximately 0.083, 0.25, 0.5, 1, 2, 4, 8, 12, 24, 48, and 72 hours post-dose. Urine and feces were collected from all Group 2 animals periodically through 168 hours post-dose. […] Following blood collection, animals were euthanized by CO2 inhalation and carcasses frozen in a dry ice/hexane bath for processing by quantitative whole body autoradiography. Whole blood, plasma, urine, feces, cage rinse, and cage wash were analyzed for total radioactivity by liquid scintillation counting.

[5] = Excretion mass balance, single intravenous dose; assay type: in vivo, Sprague Dawley rats; conditions: intravenous 10 mg/kg, over 168 hours
Method: as §1

[6] = set-up: species or system rats; conditions: Sprague Dawley, rat, in vivo, po, 75 mg/kg
[7] = rat, in vivo, po, 75 mg/kg
Method: Plasma concentrations were similar to those determined in the pharmacokinetics phase and were above the lower limit of quantitation.
Pancreas and liver concentrations ranged from 23,500 ng equiv./g to 28,100 ng equiv./g. Uveal tract and brain concentrations were lowest relative to the other tissues and were approximately 1000 ng equiv./g. Skin, thymus, prostate, and pituitary tissue concentrations were <3000 ng equiv./g. Remaining tissues had concentrations between 3600 ng-equiv./g and 10,700 ng equiv./g. […] As calculated using AUClast, the tissue:plasma ratios were highest for the small intestine (wall, 15.4) followed by the liver and adrenal gland at 6.96 and 6.64, respectively. High liver and small intestine concentrations are consistent with oral administration and biliary (fecal) excretion.

DNMT1, sequence (P26358 whole entry): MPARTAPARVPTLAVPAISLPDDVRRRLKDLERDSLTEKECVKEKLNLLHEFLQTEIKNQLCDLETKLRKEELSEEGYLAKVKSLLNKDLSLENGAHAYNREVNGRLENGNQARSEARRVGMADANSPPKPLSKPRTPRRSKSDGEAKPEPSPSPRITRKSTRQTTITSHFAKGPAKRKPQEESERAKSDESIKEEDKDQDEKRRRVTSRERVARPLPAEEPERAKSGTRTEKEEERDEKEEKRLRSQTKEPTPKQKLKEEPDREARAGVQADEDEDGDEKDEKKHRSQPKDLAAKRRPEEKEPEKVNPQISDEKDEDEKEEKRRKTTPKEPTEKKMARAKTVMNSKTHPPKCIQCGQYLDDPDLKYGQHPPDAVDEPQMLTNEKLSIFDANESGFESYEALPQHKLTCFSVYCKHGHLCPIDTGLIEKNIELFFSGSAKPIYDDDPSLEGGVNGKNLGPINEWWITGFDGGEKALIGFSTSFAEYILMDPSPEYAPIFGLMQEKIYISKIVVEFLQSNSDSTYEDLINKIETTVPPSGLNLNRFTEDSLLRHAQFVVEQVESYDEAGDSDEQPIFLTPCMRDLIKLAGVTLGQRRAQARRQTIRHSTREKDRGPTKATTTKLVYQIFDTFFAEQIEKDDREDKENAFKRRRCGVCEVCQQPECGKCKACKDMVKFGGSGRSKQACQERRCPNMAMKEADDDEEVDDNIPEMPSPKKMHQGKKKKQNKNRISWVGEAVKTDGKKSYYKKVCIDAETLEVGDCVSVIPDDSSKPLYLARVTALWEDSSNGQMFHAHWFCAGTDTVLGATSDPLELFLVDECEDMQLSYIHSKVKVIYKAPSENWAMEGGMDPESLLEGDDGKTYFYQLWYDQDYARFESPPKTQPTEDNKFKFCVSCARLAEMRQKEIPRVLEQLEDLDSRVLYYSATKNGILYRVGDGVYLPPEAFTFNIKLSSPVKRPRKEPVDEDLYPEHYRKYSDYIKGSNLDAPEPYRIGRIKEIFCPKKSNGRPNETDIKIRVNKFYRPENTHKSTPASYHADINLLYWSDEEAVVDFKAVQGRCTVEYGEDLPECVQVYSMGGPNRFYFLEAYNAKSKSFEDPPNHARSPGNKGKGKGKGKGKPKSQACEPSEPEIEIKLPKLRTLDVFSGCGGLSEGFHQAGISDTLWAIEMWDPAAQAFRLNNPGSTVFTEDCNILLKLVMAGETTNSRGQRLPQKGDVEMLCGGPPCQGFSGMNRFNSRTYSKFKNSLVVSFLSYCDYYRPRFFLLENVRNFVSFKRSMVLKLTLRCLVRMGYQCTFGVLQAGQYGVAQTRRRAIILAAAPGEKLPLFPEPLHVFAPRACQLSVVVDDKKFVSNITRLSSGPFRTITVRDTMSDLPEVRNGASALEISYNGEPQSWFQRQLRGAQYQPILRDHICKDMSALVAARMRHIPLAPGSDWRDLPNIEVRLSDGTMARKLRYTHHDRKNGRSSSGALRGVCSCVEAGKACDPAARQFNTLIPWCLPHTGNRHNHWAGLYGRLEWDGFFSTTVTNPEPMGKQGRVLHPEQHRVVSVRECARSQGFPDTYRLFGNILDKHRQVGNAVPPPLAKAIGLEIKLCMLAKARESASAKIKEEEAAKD

## C[C@H](CCCC(C)(C)O)[C@H]1CC[C@H]2[C@@H]3CC=C4C[C@@H](OS(=O)(=O)O)CC[C@]4(C)[C@H]3CC[C@]12C [25HC3S, 5-Cholesten-3β, 25-diol 3-sulfate]
[1]
  IC50: 4.04 µM
[2]
  IC50: 9.05 µM
[3]
  Reduction of methylation (demethylation) at Pos1 of LINE-1: −5%
  Reduction of methylation (demethylation) at Pos3 of LINE-1: −10%
  Reduction of methylation (demethylation) at Pos 4 of LINE-1: −5.6%
[4]
  plasma AUClast: 27,900 h*ng-equiv./g
[4]; PK phase
  terminal elimination phase T1/2, plasma: 26.6 h
[5]
  dose recovered in urine, feces, and cage rinse: approximately 100.2%
  recovered radioactivity in feces: 83.0%
[6]
  dose recovered in urine, feces, and cage rinse: approximately 94.5%
  recovered radioactivity in feces: 94.2%
[7]
  Cmax in small intestine (wall): 424,000 ng equiv./g
  Cmax in stomach (wall): 204,000 ng equiv./g
  tissue Tmax: ≤ 6 hours post-dose
  tissues in which radioactivity was detected: all tissues except the eye (lens)
  whole blood AUClast: 127,000 h ng equiv./g
  whole blood Cmax: 2850 ng equiv/g

Reference: patent US20230218639A1, “USE OF OXYGENATED CHOLESTEROL SULFATES FOR TREATING NEUROLOGICAL CONDITIONS, NEURODEGENERATIVE DISEASES, AND ADDICTION” (Durect Corporation, priority 2020, published 2023)
